From patent publication US20240238242A1, “EGCG buccal tablet and use thereof” (priority 2023, published 2024)
Like-named read-outs stand apart in the source and are kept apart here.

Assays:
[1] = tested on: Influenza B virus (B/Lee); test: Inactivation efficiency against influenza B virus B/Lee strain (residual TCID50 on MDCK cells); format: cell-based; settings: for average inactivation efficiency against virus: B/Lee virus, two experiments
[2] = tested on: Influenza A H3N2 virus (H3N2); format: cell-based; settings: 0.2 mM EGCG + H3N2 virus, 1 minute; for CPE test, virus replication in cell wells 1-10: third experiment

O=C(O[C@@H]1Cc2c(O)cc(O)cc2O[C@@H]1c1cc(O)c(O)c(O)c1)c1cc(O)c(O)c(O)c1 [EGCG, Epigallocatechin gallate]
CPE test (virus replication in the cell wells) ([1]; 0.2 mM EGCG + B/Lee virus, 1 minute, first experiment, dilution factor 10^1, wells 1-10): + | CPE test (virus replication in the cell wells) ([1]; 0.2 mM EGCG + B/Lee virus, 1 minute, first experiment, dilution factor 10^2, wells 1-10): + | CPE test (virus replication in the cell wells) ([1]; 0.2 mM EGCG + B/Lee virus, 1 minute, first experiment, dilution factor 10^3, wells 1-10): + | CPE test (virus replication in the cell wells) ([1]; 0.2 mM EGCG + B/Lee virus, 1 minute, first experiment, dilution factor 10^4, wells 1-10): + | CPE test (virus replication in the cell wells) ([1]; 0.2 mM EGCG + B/Lee virus, 1 minute, first experiment, dilution factor 10^5, wells 1-10): − and + | CPE test (virus replication in the cell wells) ([1]; 0.2 mM EGCG + B/Lee virus, 1 minute, first experiment, dilution factor 10^6, wells 1-10): − and + | CPE test (virus replication in the cell wells) ([1]; 0.2 mM EGCG + B/Lee virus, 1 minute, first experiment, dilution factor 10^7, wells 1-10): − | CPE test (virus replication in the cell wells) ([1]; 0.2 mM EGCG + B/Lee virus, 1 minute, first experiment, dilution factor 10^8, wells 1-10): − | CPE test (virus replication in the cell wells) ([1]; 0.2 mM EGCG + B/Lee virus, 1 minute, second experiment, dilution factor 10^1, wells 1-10): + | CPE test (virus replication in the cell wells) ([1]; 0.2 mM EGCG + B/Lee virus, 1 minute, second experiment, dilution factor 10^2, wells 1-10): + | CPE test (virus replication in the cell wells) ([1]; 0.2 mM EGCG + B/Lee virus, 1 minute, second experiment, dilution factor 10^3, wells 1-10): + | CPE test (virus replication in the cell wells) ([1]; 0.2 mM EGCG + B/Lee virus, 1 minute, second experiment, dilution factor 10^4, wells 1-10): + | CPE test (virus replication in the cell wells) ([1]; 0.2 mM EGCG + B/Lee virus, 1 minute, second experiment, dilution factor 10^5, wells 1-10): + | CPE test (virus replication in the cell wells) ([1]; 0.2 mM EGCG + B/Lee virus, 1 minute, second experiment, dilution factor 10^6, wells 1-10): − and + | CPE test (virus replication in the cell wells) ([1]; 0.2 mM EGCG + B/Lee virus, 1 minute, second experiment, dilution factor 10^7, wells 1-10): − | CPE test (virus replication in the cell wells) ([1]; 0.2 mM EGCG + B/Lee virus, 1 minute, second experiment, dilution factor 10^8, wells 1-10): − | average inactivation efficiency against virus ([1]; 0.2 mM EGCG, 1 minute): 18.45% | CPE test (virus replication in the cell wells) ([1]; 1 mM EGCG + B/Lee virus, 1 minute, first experiment, dilution factor 10^3, wells 1-10): + | CPE test (virus replication in the cell wells) ([1]; 1 mM EGCG + B/Lee virus, 1 minute, first experiment, dilution factor 10^4, wells 1-10): + | CPE test (virus replication in the cell wells) ([1]; 1 mM EGCG + B/Lee virus, 1 minute, first experiment, dilution factor 10^5, wells 1-10): + | CPE test (virus replication in the cell wells) ([1]; 1 mM EGCG + B/Lee virus, 1 minute, first experiment, dilution factor 10^6, wells 1-10): − | CPE test (virus replication in the cell wells) ([1]; 1 mM EGCG + B/Lee virus, 1 minute, first experiment, dilution factor 10^7, wells 1-10): − | CPE test (virus replication in the cell wells) ([1]; 1 mM EGCG + B/Lee virus, 1 minute, first experiment, dilution factor 10^8, wells 1-10): − | CPE test (virus replication in the cell wells) ([1]; 1 mM EGCG + B/Lee virus, 1 minute, second experiment, dilution factor 10^3, wells 1-10): + | CPE test (virus replication in the cell wells) ([1]; 1 mM EGCG + B/Lee virus, 1 minute, second experiment, dilution factor 10^4, wells 1-10): + | CPE test (virus replication in the cell wells) ([1]; 1 mM EGCG + B/Lee virus, 1 minute, second experiment, dilution factor 10^5, wells 1-10): + | CPE test (virus replication in the cell wells) ([1]; 1 mM EGCG + B/Lee virus, 1 minute, second experiment, dilution factor 10^6, wells 1-10): − and + | CPE test (virus replication in the cell wells) ([1]; 1 mM EGCG + B/Lee virus, 1 minute, second experiment, dilution factor 10^7, wells 1-10): − | CPE test (virus replication in the cell wells) ([1]; 1 mM EGCG + B/Lee virus, 1 minute, second experiment, dilution factor 10^8, wells 1-10): − | CPE test (virus replication in the cell wells) ([1]; 1 mM EGCG + B/Lee virus, 5 minute, first experiment, dilution factor 10^2, wells 1-10): + | CPE test (virus replication in the cell wells) ([1]; 1 mM EGCG + B/Lee virus, 5 minute, first experiment, dilution factor 10^3, wells 1-10): + | CPE test (virus replication in the cell wells) ([1]; 1 mM EGCG + B/Lee virus, 5 minute, first experiment, dilution factor 10^4, wells 1-10): + | CPE test (virus replication in the cell wells) ([1]; 1 mM EGCG + B/Lee virus, 5 minute, first experiment, dilution factor 10^5, wells 1-10): + | CPE test (virus replication in the cell wells) ([1]; 1 mM EGCG + B/Lee virus, 5 minute, first experiment, dilution factor 10^6, wells 1-10): − | CPE test (virus replication in the cell wells) ([1]; 1 mM EGCG + B/Lee virus, 5 minute, first experiment, dilution factor 10^7, wells 1-10): − | CPE test (virus replication in the cell wells) ([1]; 1 mM EGCG + B/Lee virus, 5 minute, first experiment, dilution factor 10^8, wells 1-10): − | CPE test per cell well ([1]; 1 mM EGCG + B/Lee virus, 5 minute, second experiment, dilution factor 10^1, wells 1-10): + | CPE test per cell well ([1]; 1 mM EGCG + B/Lee virus, 5 minute, second experiment, dilution factor 10^2, wells 1-10): + | CPE test per cell well ([1]; 1 mM EGCG + B/Lee virus, 5 minute, second experiment, dilution factor 10^3, wells 1-10): + | CPE test per cell well ([1]; 1 mM EGCG + B/Lee virus, 5 minute, second experiment, dilution factor 10^4, wells 1-10): + | CPE test per cell well ([1]; 1 mM EGCG + B/Lee virus, 5 minute, second experiment, dilution factor 10^5, wells 1-10): + and − | CPE test per cell well ([1]; 1 mM EGCG + B/Lee virus, 5 minute, second experiment, dilution factor 10^6, wells 1-10): − | CPE test per cell well ([1]; 1 mM EGCG + B/Lee virus, 5 minute, second experiment, dilution factor 10^7, wells 1-10): − | CPE test per cell well ([1]; 1 mM EGCG + B/Lee virus, 5 minute, second experiment, dilution factor 10^8, wells 1-10): − | average inactivation efficiency against virus ([1]; 1 mM EGCG, 1 minute): 28.74% | average inactivation efficiency against virus ([1]; 1 mM EGCG, 5 minutes): 18.45% | CPE test (virus replication in the cell wells) ([1]; 5 mM EGCG + B/Lee virus, 1 minute, first experiment, dilution factor 10^4, wells 1-10): + | CPE test (virus replication in the cell wells) ([1]; 5 mM EGCG + B/Lee virus, 1 minute, first experiment, dilution factor 10^5, wells 1-10): + | CPE test (virus replication in the cell wells) ([1]; 5 mM EGCG + B/Lee virus, 1 minute, first experiment, dilution factor 10^6, wells 1-10): − | CPE test (virus replication in the cell wells) ([1]; 5 mM EGCG + B/Lee virus, 1 minute, first experiment, dilution factor 10^7, wells 1-10): − | CPE test (virus replication in the cell wells) ([1]; 5 mM EGCG + B/Lee virus, 1 minute, first experiment, dilution factor 10^8, wells 1-10): − | CPE test (virus replication in the cell wells) ([1]; 5 mM EGCG + B/Lee virus, 1 minute, second experiment, dilution factor 10^4, wells 1-10): + | CPE test (virus replication in the cell wells) ([1]; 5 mM EGCG + B/Lee virus, 1 minute, second experiment, dilution factor 10^5, wells 1-10): − and + | CPE test (virus replication in the cell wells) ([1]; 5 mM EGCG + B/Lee virus, 1 minute, second experiment, dilution factor 10^6, wells 1-10): − | CPE test (virus replication in the cell wells) ([1]; 5 mM EGCG + B/Lee virus, 1 minute, second experiment, dilution factor 10^7, wells 1-10): − | CPE test (virus replication in the cell wells) ([1]; 5 mM EGCG + B/Lee virus, 1 minute, second experiment, dilution factor 10^8, wells 1-10): − | CPE test (virus replication in the cell wells) ([1]; 5 mM EGCG + B/Lee virus, 5 minute, first experiment, dilution factor 10^4, wells 1-10): + and − | CPE test (virus replication in the cell wells) ([1]; 5 mM EGCG + B/Lee virus, 5 minute, first experiment, dilution factor 10^5, wells 1-10): + and − | CPE test (virus replication in the cell wells) ([1]; 5 mM EGCG + B/Lee virus, 5 minute, first experiment, dilution factor 10^6, wells 1-10): − and + | CPE test (virus replication in the cell wells) ([1]; 5 mM EGCG + B/Lee virus, 5 minute, first experiment, dilution factor 10^7, wells 1-10): − and + | CPE test (virus replication in the cell wells) ([1]; 5 mM EGCG + B/Lee virus, 5 minute, first experiment, dilution factor 10^8, wells 1-10): − | CPE test per cell well ([1]; 5 mM EGCG + B/Lee virus, 5 minute, second experiment, dilution factor 10^4, wells 1-10): + | CPE test per cell well ([1]; 5 mM EGCG + B/Lee virus, 5 minute, second experiment, dilution factor 10^5, wells 1-10): − and + | CPE test per cell well ([1]; 5 mM EGCG + B/Lee virus, 5 minute, second experiment, dilution factor 10^6, wells 1-10): − | CPE test per cell well ([1]; 5 mM EGCG + B/Lee virus, 5 minute, second experiment, dilution factor 10^7, wells 1-10): − | CPE test per cell well ([1]; 5 mM EGCG + B/Lee virus, 5 minute, second experiment, dilution factor 10^8, wells 1-10): − | average inactivation efficiency against virus ([1]; 5 mM EGCG, 1 minute): 52.43% | average inactivation efficiency against virus ([1]; 5 mM EGCG, 5 minutes): 36.90% | CPE test, virus replication in cell wells (wells 1-10) ([2]; first experiment, dilution factor 10^1): + | CPE test, virus replication in cell wells (wells 1-10) ([2]; first experiment, dilution factor 10^2): + | CPE test, virus replication in cell wells (wells 1-10) ([2]; first experiment, dilution factor 10^3): + | CPE test, virus replication in cell wells (wells 1-10) ([2]; first experiment, dilution factor 10^4): + | CPE test, virus replication in cell wells (wells 1-10) ([2]; first experiment, dilution factor 10^5): + and − | CPE test, virus replication in cell wells (wells 1-10) ([2]; first experiment, dilution factor 10^6): − | CPE test, virus replication in cell wells (wells 1-10) ([2]; first experiment, dilution factor 10^7): − | CPE test, virus replication in cell wells (wells 1-10) ([2]; first experiment, dilution factor 10^8): − | CPE test, virus replication in cell wells (wells 1-10) ([2]; second experiment, dilution factor 10^1): + | CPE test, virus replication in cell wells (wells 1-10) ([2]; second experiment, dilution factor 10^2): + | CPE test, virus replication in cell wells (wells 1-10) ([2]; second experiment, dilution factor 10^3): + | CPE test, virus replication in cell wells (wells 1-10) ([2]; second experiment, dilution factor 10^4): + | CPE test, virus replication in cell wells (wells 1-10) ([2]; second experiment, dilution factor 10^5): + and − | CPE test, virus replication in cell wells (wells 1-10) ([2]; second experiment, dilution factor 10^6): − | CPE test, virus replication in cell wells (wells 1-10) ([2]; second experiment, dilution factor 10^7): − | CPE test, virus replication in cell wells (wells 1-10) ([2]; second experiment, dilution factor 10^8): − | CPE test, virus replication in cell wells 1-10 ([2]; dilution factor 10^1): + | CPE test, virus replication in cell wells 1-10 ([2]; dilution factor 10^2): + | CPE test, virus replication in cell wells 1-10 ([2]; dilution factor 10^3): + | CPE test, virus replication in cell wells 1-10 ([2]; dilution factor 10^4): + | CPE test, virus replication in cell wells 1-10 ([2]; dilution factor 10^5): + and − | CPE test, virus replication in cell wells 1-10 ([2]; dilution factor 10^6): −
